ChEMBL document CHEMBL4033774, “Class I HDAC Inhibitors: Potential New Epigenetic Therapeutics for Alcohol Use Disorder (AUD)” (J Med Chem, 2018)

Assays:
[1] = biological target: T1, Histone deacetylase 3/Nuclear receptor corepressor 2 (HDAC3/NCoR2) (Homo sapiens, UniProt O15379); assay: Inhibition of human full length C-terminal His-tagged HDAC3/N-terminal GST-tagged human NCOR2 co-expressed in baculovirus infected Sf9 insect cells after 1 hr in presence of acetylated lysine substrate by fluorescence assay
T1 sequence (O15379 whole entry): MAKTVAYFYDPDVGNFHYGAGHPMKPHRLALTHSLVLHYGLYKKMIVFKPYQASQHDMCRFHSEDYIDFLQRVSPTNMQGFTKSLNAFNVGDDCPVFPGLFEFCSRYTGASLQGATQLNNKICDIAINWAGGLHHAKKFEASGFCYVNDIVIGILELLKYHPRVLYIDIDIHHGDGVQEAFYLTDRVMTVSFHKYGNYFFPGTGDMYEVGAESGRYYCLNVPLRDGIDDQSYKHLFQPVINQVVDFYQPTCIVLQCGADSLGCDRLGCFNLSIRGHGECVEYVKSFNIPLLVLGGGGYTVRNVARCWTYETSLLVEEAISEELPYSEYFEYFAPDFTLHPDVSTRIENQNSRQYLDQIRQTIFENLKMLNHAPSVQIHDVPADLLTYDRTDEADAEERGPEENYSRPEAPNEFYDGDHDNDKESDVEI
T1 sequence (Q9Y618 whole entry, further chain): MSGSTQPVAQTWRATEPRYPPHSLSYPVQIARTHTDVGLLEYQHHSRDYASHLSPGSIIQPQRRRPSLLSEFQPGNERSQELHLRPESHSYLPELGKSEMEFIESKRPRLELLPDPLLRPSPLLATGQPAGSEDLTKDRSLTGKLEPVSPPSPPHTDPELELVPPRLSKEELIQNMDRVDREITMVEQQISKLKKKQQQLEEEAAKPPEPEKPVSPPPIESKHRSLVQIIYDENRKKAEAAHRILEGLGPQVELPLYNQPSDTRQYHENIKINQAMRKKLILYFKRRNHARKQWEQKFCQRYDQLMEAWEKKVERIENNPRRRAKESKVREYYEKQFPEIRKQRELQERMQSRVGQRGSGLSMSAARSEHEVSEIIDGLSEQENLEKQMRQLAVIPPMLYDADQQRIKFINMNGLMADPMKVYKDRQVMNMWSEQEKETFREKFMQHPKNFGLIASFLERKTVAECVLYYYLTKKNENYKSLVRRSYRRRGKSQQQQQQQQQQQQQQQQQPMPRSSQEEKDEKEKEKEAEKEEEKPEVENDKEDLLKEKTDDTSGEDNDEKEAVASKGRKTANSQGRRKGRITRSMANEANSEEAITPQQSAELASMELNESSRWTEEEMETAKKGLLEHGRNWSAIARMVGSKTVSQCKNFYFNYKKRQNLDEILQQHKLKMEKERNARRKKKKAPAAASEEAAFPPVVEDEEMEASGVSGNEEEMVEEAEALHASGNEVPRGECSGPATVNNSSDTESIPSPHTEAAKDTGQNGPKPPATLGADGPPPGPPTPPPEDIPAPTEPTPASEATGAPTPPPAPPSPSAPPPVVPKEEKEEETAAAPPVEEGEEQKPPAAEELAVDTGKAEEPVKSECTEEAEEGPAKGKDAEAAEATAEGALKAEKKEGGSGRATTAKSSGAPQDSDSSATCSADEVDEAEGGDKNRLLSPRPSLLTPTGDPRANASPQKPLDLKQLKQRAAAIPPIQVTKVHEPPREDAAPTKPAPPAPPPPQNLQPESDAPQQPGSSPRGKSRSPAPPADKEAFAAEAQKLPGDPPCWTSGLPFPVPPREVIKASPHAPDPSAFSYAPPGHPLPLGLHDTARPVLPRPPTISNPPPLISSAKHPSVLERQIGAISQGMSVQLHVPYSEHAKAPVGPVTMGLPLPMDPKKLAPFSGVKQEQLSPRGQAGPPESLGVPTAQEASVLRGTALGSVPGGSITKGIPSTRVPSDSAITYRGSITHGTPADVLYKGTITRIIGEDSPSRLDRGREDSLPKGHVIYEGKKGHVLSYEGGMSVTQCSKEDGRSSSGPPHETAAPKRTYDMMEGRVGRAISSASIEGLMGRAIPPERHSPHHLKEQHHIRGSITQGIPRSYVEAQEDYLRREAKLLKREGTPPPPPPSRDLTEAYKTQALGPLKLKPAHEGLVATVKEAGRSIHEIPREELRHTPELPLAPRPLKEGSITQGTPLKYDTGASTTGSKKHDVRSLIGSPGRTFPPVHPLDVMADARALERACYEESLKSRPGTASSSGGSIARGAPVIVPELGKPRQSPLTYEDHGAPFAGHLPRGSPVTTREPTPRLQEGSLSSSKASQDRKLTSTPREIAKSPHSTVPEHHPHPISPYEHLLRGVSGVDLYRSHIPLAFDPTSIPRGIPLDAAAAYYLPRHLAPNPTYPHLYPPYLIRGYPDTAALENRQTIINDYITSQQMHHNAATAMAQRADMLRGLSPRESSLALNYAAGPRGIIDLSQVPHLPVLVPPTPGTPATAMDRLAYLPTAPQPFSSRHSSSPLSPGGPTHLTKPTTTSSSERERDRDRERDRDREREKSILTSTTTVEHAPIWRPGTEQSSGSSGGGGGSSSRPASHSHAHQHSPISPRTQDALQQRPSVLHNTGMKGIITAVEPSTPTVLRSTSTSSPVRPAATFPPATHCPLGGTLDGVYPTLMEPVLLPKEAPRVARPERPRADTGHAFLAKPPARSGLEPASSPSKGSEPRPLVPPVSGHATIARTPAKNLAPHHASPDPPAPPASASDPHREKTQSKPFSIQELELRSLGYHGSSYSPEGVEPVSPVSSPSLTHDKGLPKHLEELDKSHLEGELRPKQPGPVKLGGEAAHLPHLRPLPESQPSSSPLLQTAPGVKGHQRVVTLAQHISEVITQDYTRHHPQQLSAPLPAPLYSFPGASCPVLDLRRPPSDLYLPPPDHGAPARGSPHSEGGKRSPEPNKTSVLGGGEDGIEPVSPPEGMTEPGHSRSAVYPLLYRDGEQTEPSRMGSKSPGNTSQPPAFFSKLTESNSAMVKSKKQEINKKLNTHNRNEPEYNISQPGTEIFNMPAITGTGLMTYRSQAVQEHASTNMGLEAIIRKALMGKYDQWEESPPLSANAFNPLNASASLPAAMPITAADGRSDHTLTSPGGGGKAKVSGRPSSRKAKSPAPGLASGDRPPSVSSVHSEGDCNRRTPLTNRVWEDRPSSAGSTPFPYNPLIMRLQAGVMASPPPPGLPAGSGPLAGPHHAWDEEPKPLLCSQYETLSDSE

Homo sapiens = organism: Homo sapiens; assay: Selectivity ratio of IC50 for human full length C-terminal His/FLAG-tagged HDAC1 expressed in baculovirus infected Sf9 insect cells to IC50 for human full length C-terminal His-tagged HDAC2 expressed in baculovirus infected Sf9 insect cells
Histone deacetylase 1 [2] = biological target: T2, Histone deacetylase 1 (Homo sapiens, UniProt Q13547); assay: Inhibition of human full length C-terminal His/FLAG-tagged HDAC1 expressed in baculovirus infected Sf9 insect cells after 1 hr in presence of acetylated lysine substrate by fluorescence assay
T2 sequence (Q13547 whole entry): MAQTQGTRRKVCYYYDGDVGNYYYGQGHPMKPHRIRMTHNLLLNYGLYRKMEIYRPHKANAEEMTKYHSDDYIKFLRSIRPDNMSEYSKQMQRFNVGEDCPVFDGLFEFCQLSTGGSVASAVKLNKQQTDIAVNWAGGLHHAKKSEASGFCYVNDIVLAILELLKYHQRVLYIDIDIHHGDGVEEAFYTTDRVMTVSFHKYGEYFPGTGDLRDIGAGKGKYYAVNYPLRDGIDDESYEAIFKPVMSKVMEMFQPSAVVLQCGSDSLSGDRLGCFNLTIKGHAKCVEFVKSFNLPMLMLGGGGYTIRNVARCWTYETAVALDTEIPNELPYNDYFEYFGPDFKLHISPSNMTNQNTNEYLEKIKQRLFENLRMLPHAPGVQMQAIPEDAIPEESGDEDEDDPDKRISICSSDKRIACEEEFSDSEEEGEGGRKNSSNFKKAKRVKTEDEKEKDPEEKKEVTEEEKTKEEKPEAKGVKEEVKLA

Histone deacetylase 2 [3] = biological target: T3, Histone deacetylase 2 (Homo sapiens, UniProt Q92769); assay: Inhibition of human full length C-terminal His-tagged HDAC2 expressed in baculovirus infected Sf9 insect cells after 1 hr in presence of acetylated lysine substrate by fluorescence assay
T3 sequence (Q92769 whole entry, the tested form may be a part): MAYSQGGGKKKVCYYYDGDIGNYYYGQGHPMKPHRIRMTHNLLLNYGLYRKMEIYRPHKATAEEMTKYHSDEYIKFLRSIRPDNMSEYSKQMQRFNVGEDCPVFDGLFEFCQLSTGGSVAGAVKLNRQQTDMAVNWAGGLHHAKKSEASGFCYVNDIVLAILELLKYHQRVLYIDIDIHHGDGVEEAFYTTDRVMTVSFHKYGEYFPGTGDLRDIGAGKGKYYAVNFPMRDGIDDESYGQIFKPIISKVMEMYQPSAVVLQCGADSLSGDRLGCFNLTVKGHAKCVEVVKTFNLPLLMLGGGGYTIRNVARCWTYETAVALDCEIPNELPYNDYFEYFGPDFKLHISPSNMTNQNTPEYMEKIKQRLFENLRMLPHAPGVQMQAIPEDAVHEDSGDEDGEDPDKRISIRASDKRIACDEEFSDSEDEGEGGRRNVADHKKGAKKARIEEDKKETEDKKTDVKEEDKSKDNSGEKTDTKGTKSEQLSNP

[4] = biological target: T1, Histone deacetylase 3/Nuclear receptor corepressor 2 (HDAC3/NCoR2); assay: Inhibition of human full length C-terminal His-tagged HDAC3/N-terminal GST-tagged human NCOR2 (395 to 489 residues) co-expressed in baculovirus infected Sf9 insect cells preincubated for 3 hrs followed by fluorophore conjugated MAZ1600 substrate addition measured every 5 mins by fluorescence assay
Histone deacetylase 2 [5] = biological target: T3, Histone deacetylase 2; assay: Inhibition of human full length C-terminal His/FLAG-tagged HDAC2 expressed in baculovirus infected Sf9 cells preincubated for 3 hrs followed by fluorophore conjugated MAZ1600 substrate addition measured every 5 mins by fluorescence assay
Histone deacetylase 1 [6] = biological target: T2, Histone deacetylase 1; assay: Inhibition of recombinant full length human C-terminal FLAG/His-tagged HDAC1 expressed in baculovirus infected sf9 cells preincubated for 3 hrs followed by fluorophore conjugated MAZ1600 substrate addition measured every 5 mins by fluorescence assay

| Compound | IC50 [1] | Ratio IC50 (Homo sapiens) | IC50 (Histone deacetylase 1 [2]) | IC50 (Histone deacetylase 2 [3]) | IC50 [4] | IC50 (Histone deacetylase 2 [5]) | IC50 (Histone deacetylase 1 [6]) |
| --- | --- | --- | --- | --- | --- | --- | --- |
| O=C(/C=C(\CO)c1ccccc1)c1ccccc1 | 50000 nM | 20 | 2740 nM | 170 nM | – | – | – |
| C[C@H](CO)N1C[C@H](C)[C@H](CN(C)Cc2ccc(C(=O)Nc3ccccc3N)cc2)Oc2ccc(N(C)C)cc2CC1=O | – | – | – | – | 1300 nM | 560 nM | 69 nM |
